Assay results: patent US6391566B1, “Ionotropic human glutamate receptor subunit NR3” (NPS Allelix Corporation, priority 1992, dated 2002)

Legend:
Type in all cases: cell-based
[1] = biological target: T1, NR3-1/NMDAR1-3C heteromeric complex (Homo sapiens, UniProt Q05586+Q13224); assay: Whole-cell voltage-clamp recording of NMDA-evoked currents in transiently transfected HEK293 cells (heteromeric expression); conditions: 60 μM NMDA
T1 construct: expressed in transfected cells; host or cells: HEK293 (transient, lipofectamine)
T1 sequence (Q13224 27-1484, other chains not shown): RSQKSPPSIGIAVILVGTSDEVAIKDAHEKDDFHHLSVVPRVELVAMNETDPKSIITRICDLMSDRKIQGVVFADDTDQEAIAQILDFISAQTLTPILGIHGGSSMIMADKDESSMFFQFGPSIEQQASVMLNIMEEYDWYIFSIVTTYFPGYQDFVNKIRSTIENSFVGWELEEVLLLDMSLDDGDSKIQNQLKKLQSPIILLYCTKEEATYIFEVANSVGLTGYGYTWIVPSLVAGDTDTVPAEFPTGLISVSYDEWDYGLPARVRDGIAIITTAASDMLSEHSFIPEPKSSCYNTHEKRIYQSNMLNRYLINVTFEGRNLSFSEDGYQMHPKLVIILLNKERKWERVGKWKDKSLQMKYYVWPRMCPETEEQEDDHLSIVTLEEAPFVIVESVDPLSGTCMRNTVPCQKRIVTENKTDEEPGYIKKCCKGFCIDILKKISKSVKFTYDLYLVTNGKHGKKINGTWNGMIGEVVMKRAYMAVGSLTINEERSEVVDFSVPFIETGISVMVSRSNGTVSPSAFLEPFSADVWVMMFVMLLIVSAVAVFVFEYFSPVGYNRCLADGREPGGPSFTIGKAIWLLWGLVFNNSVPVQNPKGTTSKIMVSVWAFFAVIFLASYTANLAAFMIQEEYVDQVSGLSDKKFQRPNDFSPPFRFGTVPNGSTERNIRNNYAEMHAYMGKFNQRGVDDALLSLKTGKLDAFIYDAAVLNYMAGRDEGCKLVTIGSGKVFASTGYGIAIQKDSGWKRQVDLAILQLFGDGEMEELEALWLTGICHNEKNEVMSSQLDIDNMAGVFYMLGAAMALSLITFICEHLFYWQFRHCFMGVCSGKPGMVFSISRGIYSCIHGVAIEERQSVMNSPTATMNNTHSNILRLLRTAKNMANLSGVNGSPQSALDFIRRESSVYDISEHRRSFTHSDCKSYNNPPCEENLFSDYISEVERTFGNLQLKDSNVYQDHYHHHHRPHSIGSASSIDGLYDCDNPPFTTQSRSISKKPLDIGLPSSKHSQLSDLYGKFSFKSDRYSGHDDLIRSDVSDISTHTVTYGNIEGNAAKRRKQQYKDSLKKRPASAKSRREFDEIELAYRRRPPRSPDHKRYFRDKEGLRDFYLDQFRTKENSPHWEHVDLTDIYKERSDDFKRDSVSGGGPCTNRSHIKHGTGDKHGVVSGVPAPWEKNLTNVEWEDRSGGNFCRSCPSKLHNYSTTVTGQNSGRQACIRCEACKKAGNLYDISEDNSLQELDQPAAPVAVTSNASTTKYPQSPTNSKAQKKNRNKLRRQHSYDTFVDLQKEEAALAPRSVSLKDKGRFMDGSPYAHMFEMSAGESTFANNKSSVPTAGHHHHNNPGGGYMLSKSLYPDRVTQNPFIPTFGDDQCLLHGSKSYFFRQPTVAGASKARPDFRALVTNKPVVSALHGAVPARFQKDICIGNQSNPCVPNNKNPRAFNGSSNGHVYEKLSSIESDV
Experimental: (§1) For transient expression, HEK293 cells were transfected with approximately 0.4 μg DNA (as pcDNA1-Amp/hNR3 or pcDNA1-Amp/hNR1-3C) per 10^5 HEK293 cells, by lipofectamine-mediated DNA transfection according to the manufacturer's (Life Technologies Inc., Gaithersburg, Md.) specifications. In coexpression experiments, i.e. for heteromeric expression of NR3-1 and NMDAR1-3C, the HEK293 cells were similarly transfected with 0.8 μg of a DNA mixture containing pcDNA1-Amp/hNR3 and pcDNA1-Amp/hNR1-3C. Briefly, HEK293 cells were plated at a density of 10^5 cells/dish and then grown for 24 hours in 10% FBS-supplemented MEM medium (Life Technologies Inc., Gaithersburg, Md.). The medium was then removed and cells were washed in OPTI-MEM I medium (Life Technologies Inc.) lacking FBS, prior to transfection. A transfection solution (100 μl ) containing 2-4 μl of lipofectamine and DNA was then applied to the cells. After incubation for 4 hours at 37° C., cells were washed as previously described and then allowed to grow for 48 hours in 10% FBS-supplemented MEM medium containing 50 μM DL-AP5 (2-amino-5-phosphonopentanoic acid) and 50 μM 7-chlorokyneurinic acid prior to electrophysiological recording. […]

NMDAR1-3C = biological target: T2, NMDAR1-3C (Homo sapiens, UniProt Q05586); assay: Whole-cell voltage-clamp recording of NMDA-evoked currents in HEK293 cells transfected with NMDAR1-3C alone; conditions: 60 μM NMDA; HEK293 cells transiently transfected with NMDAR1-3C alone; FIG. 10
T2 construct: expressed in transfected cells; host or cells: HEK293 (transient, lipofectamine)
Experimental: as §1

NR3 = biological target: T3, NR3 (Homo sapiens, UniProt Q13224); assay: Whole-cell voltage-clamp recording of NMDA-evoked currents in HEK293 cells transfected with NR3 alone; conditions: 60 μM NMDA; HEK293 cells transiently transfected with NR3 alone; FIG. 10
T3 construct: expressed in transfected cells; host or cells: HEK293 (transient, lipofectamine)
T3 sequence (Q13224 27-1484): as the sequence (Q13224 27-1484, other chains not shown) above
Experimental: as §1

## CN[C@H](CC(=O)O)C(=O)O [NMDA, N-methyl-D-aspartate]
[1]; HEK293 cells transiently transfected with both NR3-1 and NMDAR1-3C, FIG. 10
  NMDA-induced depolarizations: NMDA-induced depolarizations were, however, observed
NMDAR1-3C
  NMDA-induced depolarizations: No NMDA-induced depolarizations were observed
NR3
  NMDA-induced depolarizations: No NMDA-induced depolarizations were observed

## [Cl-].[Cl-].[Mg+2] [MgCl2]
[1]; 1 mM MgCl2, HEK293 cells transfected with both NR3-1 and NMDAR1-3C
  block of NMDA-induced currents: blocked
